Source: patent US20240228465A1, “SUBSTITUTED PYRIDINE N-OXIDE DERIVATIVES USEFUL AS A FACTOR XIA INHIBITORS” (Janssen Pharmaceutica NV, priority 2021, published 2024)
Read-outs that look alike come from different tables or passages of the source.

Columns and labels:
human plasma kallikrein = human plasma kallikrein (Homo sapiens, UniProt P03952); test: Kallikrein inhibition assay utilizing a quenched AMC peptide substrate (FLINT); format: biochemical
Description: Biological Example 2: Kallikrein Inhibition Assay Utilizing a Quenched AMC Peptide Substrate
A fluorescence intensity (FLINT) based assay was used to monitor inhibition of human plasma kallikrein. The peptide substrate, Z-Gly-Pro-Arg-AMC (Purchased from Bachem; Catalog #I-1150) was chosen based on its relatively low KM for kallikrein which enables running the assay at lower substrate concentrations to control background fluorescence. The kinetic parameters for this substrate were determined by fitting titration data to the Michaelis-Menten equation yielding a KM=40 μm, kcat=0.76 s^−1, and kcat/KM=18932 M^−1s^−1.
The Kallikrein FLINT assay was used with the following Z-Gly-Pro-Arg-AMC assay buffer: 50 mM Tris, pH 7.5, 100 mM NaCl, 5 mM CaCl2, 0.1 mg/mL BSA, 0.03% CHAPS. Assay buffer was prepared by mixing all ingredients fresh. 2× Z-Gly-Pro-Arg-AMC peptide substrate was prepared by diluting 10 mM stock into 1× assay buffer for a 100 μM working concentration (50 μM final concentration). The 2× kallikrein stock solution was prepared by diluting 14.76 μM stock in 1× assay buffer for a 4 nM working stock solution (2 nM final concentration).
Test compound(s) were run in an 11-point, 3-fold serial dilution with a final top compound concentration of 1 μM. Final DMSO in assay was 2%. Plasma kallikrein was pre-incubated for 30-minute with compound and then 50 μM substrate was added to initiate the reaction. The assay was run with either end point (EP) reads at 30 min or kinetic (KIN) reads at 5 min intervals over 30 minutes. The time course was linear using 2 nM kallikrein greater than 30 minutes. More specifically, the assay was run as follows: • 100 nL of 0.1 mM test compound was dispensed into black 384-well non-binding Greiner BioOne 784900 plate for 1 μM final concentration; • 5 μL of 1× assay buffer was dispensed to columns 24 (low control) and 5 μL 2× human kallikrein enzyme solution was dispensed to columns 1-23 (column 23 high control); • the plate was centrifuged with a “cover” plate at 500 rpm for 1 min • the plate was pre-incubated for 30 minutes at room temperature with plate covered; • 5 μL of 2× Z-Gly-Pro-Arg-AMC peptide substrate was dispensed into the entire plate, columns 1-24; • the plate was centrifuged with a “cover” plate at 500 rpm for 1 min; • the plate was read monitoring fluorescence intensity on the BMG PHERAStar at room temperature, using fluorescence module 340 nm/440 nm.
(§1) Percent inhibition (IC50) curves were generated per compound tested, and data was analyzed using a 4-parameter logistic fit using GeneData Screener. The relative fluorescence unit (RFU) values were normalized to percent inhibition using the following equation:
% inhibition=((HC−LC)−(compound−LC)/(HC−LC))*100 • where LC—low control=mean signal of human kallikrein enzyme or 100% inhibition of human kallikrein enzyme; HC—high control=mean signal of Factor XIa+Z-Gly-Pro-Arg-AMC peptide substrate with DMSO only.
(§2) An 11-point dose response curve for the test compound(s) was generated using GENDATA to determine IC50 value based on the following equation:
Y=Bottom+(Top−Bottom)/(1+10^((log IC50−X)*HillSlope)) • where Y is the % inhibition in the presence of X inhibitor concentration, Top=high control=mean signal of human kallikrein enzyme+Z-Gly-Pro-Arg-AMC peptide substrate with DMSO only; Bottom=low control—mean signal of no human kallikrein enzyme or 100% inhibition of human kallikrein enzyme; HillSlope—Hill coefficient; and IC50=concentration of compound with 50% inhibition in relation to top/high control.
Representative compounds of formula (I) of the present invention were tested according to the procedure described in Biological Example 1 and Biological Example 2 above, with results as listed in Table 3, below. Results listed in the (ER) column were measured using endpoint reads where a single fluorescence reading was measured for each well at a 30 min timepoint. […]

Factor XIa = Factor XIa (Homo sapiens, UniProt P03951); test: Factor XIa inhibition assay utilizing a fluorophore-quencher pair peptide substrate (FLINT); format: biochemical; conditions: 30 min preincubation
Description: Biological Example 1: Factor XIa Inhibition Assay Utilizing a Fluorophore-Quencher Pair Peptide Substrate
A fluorescence intensity (FLINT) based assay was used to monitor inhibition of Factor XIa. The peptide substrate, 5Fam-KLTRAETV-K5Tamra (purchased from New England Peptide) was chosen based on the […]. Conversion of zymogen […]. The custom peptide used in this assay was based on the Arg146 cleavage site of FXI. The peptide substrate was designed with a fluorophore-quencher pair, where the fluorescence is quenched until FXIa cleaves the 8-mer peptide after the Arg residue. The substrate KM was fit to a substrate inhibition model whereby kcat=0.86 s^−1, KM=12.4 μM, Ki=61.6 μM with an enzymatic efficiency, and kcat/KM=69523 M^−1s^−1.
The Factor XIa FLINT assay was used with the following 5Fam-KLTRAETV-K5Tamra assay buffer: 50 mM Tris, pH 7.5, 100 mM NaCl, 5 mM CaCl2, 0.1 mg/mL BSA, 0.03% CHAPS. Assay buffer was prepared by mixing all ingredients fresh. 5Fam-KLTRAETV-K5Tamra peptide substrate was first prepared at 10 mM in 100% DMSO, then diluted to 3 mM in 100% DMSO. Assay buffer was then added directly to the 3 mM stock of substrate to prepare the 30 μM 2× working concentration (15 μM final concentration). The 2× Factor XIa stock solution was prepared by diluting 6.562 μM stock in 1× assay buffer for a […].
Test compound(s) were run in an 11-point, 3-fold serial dilution with a final top compound concentration of 100 nM. Final DMSO in assay was 2%. FXIa was preincubated with compound for 30-minutes and then substrate was added to initiate the reaction. The assay was run with either end point (EP) reads at 30 min or kinetic (KIN) reads at 5 min intervals over 30 minutes. The time course was linear using 100 μM FXIa greater than 30 minutes. More specifically, the assay was run as follows: • 100 nL of 0.01 mM test compound was dispensed into black 384-well non-binding Greiner BioOne 784900 plate for 0.1 μM final concentration; • 5 μL of 1× assay buffer was dispensed to column 24 (low control) and 5 μL 2× Factor XIa solution was dispensed to columns 1-23 (column 23 high control); • the plate was centrifuged with a “cover” plate at 500 rpm for 1 min • the plate was pre-incubated for 30 minutes at room temperature with plate covered; • 5 μL of 2× 5Fam-KLTRAETV-K5Tamra peptide substrate was dispensed into the entire plate, columns 1-24; • the plate was centrifuged with a “cover” plate at 500 rpm for 1 min; • the plate was read monitoring fluorescence intensity on the BMG PHERAStar at room temperature, using fluorescence module 485 nm/520 nm.
as §1
[formula] • where LC—low control=mean signal of no Factor XIa or 100% inhibition of Factor XIa; HC—high control=mean signal of Factor XIa+5Fam-KLTRAETV-K5Tamra peptide substrate with DMSO only.
as §2
[formula] • where Y is the % inhibition in the presence of X inhibitor concentration, Top=high control=mean signal of Factor XIa+5Fam-KLTRAETV-K5Tamra peptide substrate with DMSO only; Bottom=low control—mean signal of no Factor XIa or 100% inhibition of Factor XIa; HillSlope—Hill coefficient; and IC50=concentration of compound with 50% inhibition in relation to top/high control.
Representative compounds of formula (I) of the present invention were tested according to the procedure described in Biological Example 1 and Biological Example 2 above, with results as listed in Table 3, below. […]

[1] = kinetic reads at 5 min intervals over 30 min, read-out: FXIa (KIN) IC50
[2] = end point read at 30 min, 30 min preincubation, read-out: Kallikrein (EP) IC50
[3] = end point read at 30 min, read-out: FXIa (EP) IC50

Chain of human plasma kallikrein (P03952 391-638 limits assumed): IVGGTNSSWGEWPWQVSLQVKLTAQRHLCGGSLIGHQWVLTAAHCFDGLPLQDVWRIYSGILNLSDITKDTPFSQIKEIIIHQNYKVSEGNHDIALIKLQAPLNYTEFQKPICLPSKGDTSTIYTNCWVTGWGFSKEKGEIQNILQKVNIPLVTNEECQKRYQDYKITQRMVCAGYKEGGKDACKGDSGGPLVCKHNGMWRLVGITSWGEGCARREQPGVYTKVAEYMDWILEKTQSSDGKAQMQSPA
Chain of human plasma kallikrein (P03952 20-390 partner limits assumed): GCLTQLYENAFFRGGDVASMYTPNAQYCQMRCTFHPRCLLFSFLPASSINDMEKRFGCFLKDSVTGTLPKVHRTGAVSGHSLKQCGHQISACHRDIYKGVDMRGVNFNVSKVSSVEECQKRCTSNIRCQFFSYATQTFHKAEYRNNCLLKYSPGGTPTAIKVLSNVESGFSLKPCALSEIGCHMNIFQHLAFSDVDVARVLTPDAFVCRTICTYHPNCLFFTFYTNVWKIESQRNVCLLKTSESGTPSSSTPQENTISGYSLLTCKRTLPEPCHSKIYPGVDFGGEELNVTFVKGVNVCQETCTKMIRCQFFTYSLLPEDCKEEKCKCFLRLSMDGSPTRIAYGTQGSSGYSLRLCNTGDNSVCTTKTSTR
Chain of Factor XIa (P03951 388-625 limits assumed): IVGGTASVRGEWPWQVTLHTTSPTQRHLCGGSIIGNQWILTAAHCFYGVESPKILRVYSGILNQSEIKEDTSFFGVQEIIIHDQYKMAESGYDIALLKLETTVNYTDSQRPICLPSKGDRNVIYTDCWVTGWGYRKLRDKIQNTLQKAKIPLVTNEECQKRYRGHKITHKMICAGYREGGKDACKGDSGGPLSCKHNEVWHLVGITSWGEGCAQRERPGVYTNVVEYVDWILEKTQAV
Chain of Factor XIa (P03951 19-387 partner limits assumed): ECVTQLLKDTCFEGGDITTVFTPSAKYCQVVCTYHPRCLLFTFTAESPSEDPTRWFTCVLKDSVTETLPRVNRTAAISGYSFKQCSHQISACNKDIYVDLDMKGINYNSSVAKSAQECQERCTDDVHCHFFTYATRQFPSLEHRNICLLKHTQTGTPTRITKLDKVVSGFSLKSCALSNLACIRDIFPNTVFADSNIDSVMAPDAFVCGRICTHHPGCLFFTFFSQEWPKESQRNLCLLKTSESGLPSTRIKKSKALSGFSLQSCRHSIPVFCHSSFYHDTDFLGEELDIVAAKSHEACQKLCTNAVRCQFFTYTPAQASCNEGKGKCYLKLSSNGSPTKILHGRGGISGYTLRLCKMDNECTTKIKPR

Row | IC50 (human plasma kallikrein; kinetic reads, unit μM, read-out: Kallikrein (KIN) IC50) [µM] | IC50 (Factor XIa; [1]) [µM] | IC50 (human plasma kallikrein; [2]) [µM] | IC50 (Factor XIa; [3]) [µM] | IC50 (human plasma kallikrein; kinetic reads at 5 min intervals over 30 min, 30 min preincubation, read-out: Kallikrein (KIN) IC50) [µM] | Compound
1 | > 20 | > 0.2 | – | – | – | Cn1nncc1-c1cn([C@@H](CCOC(F)F)c2ccc(-c3c(-n4cc(C(F)(F)F)nn4)ccc(Cl)c3F)c[n+]2[O-])cn1 [M8, (S)-5-(3-Chloro-2-fluoro-6-(4-(trifluoromethyl)-1H-1,2,3-triazol-1-yl)phenyl)-2-(3-(difluoromethoxy)-1-(4-(1-methyl-1H-1,2,3-triazol-5-yl)-1H-imidazol-1-yl)propyl)pyridine 1-oxide]
2 | – | – | 0.367 | 0.0381 | – | O=C(NC1CC1)c1ccc(-c2cn(C(CC3CC3)c3ccc(-c4cc(Cl)ccc4-n4cnnn4)c[n+]3[O-])nn2)cc1 (centres unmarked) [T2, 5-(5-Chloro-2-(1H-tetrazol-1-yl)phenyl)-2-(2-cyclopropyl-1-(4-(4-(cyclopropylcarbamoyl)phenyl)-1H-1,2,3-triazol-1-yl)ethyl)pyridine 1-oxide]
3 | – | – | 0.306 | 0.0071 | – | O=C(O)c1ccc(-c2cn(C(CC3CC3)c3ccc(-c4cc(Cl)ccc4-n4cnnn4)c[n+]3[O-])cn2)cc1 (centres unmarked) [M1, 2-(1-(4-(4-Carboxyphenyl)-1H-imidazol-1-yl)-2-cyclopropylethyl)-5-(5-chloro-2-(1H-tetrazol-1-yl)phenyl)pyridine 1-oxide]
4 | – | 0.0005 | – | – | 0.0489 | Cn1nncc1-c1cn([C@H](CCOC(F)F)c2ccc(-c3c(-n4cc(C(F)(F)F)nn4)ccc(Cl)c3F)c[n+]2[O-])cn1 [M10, (R)-5-(3-Chloro-2-fluoro-6-(4-(trifluoromethyl)-1H-1,2,3-triazol-1-yl)phenyl)-2-(3-(difluoromethoxy)-1-(4-(1-methyl-1H-1,2,3-triazol-5-yl)-1H-imidazol-1-yl)propyl)pyridine 1-oxide]
